Reference: PubChem BioAssay AID1963844 (Molecular Pharmacology Branch, DTP, NCI, 2024)

Tested on: 422866-222-R5-J1-PDC complex spheroid viability
Test: Anticancer human tumor 422866-222-R5-J1-PDC patient-derived pancreatic adenocarcinoma cell line growth inhibition [POLQ]
Settings: for IC50: curve of first compound; for viability, T/C: stronger effect = lower value
How it was run: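 Patient-derived tumour cells were co-cultured with HUVEC and mesenchymal stem cells as multicellular spheroids at 37 °C. They were treated with POLQ inhibitors (novobiocin, ART-558, RP6685) alone or combined with other agents. Top concentrations were at or near clinical Cmax (otherwise 10 microM; SN-38 at 1 microM), decreasing in half-log steps.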

[1] = second compound 0.0316 µM, first compound 0.0316 µM
[2] = second compound 0.0316 µM, first compound 0.1 µM
[3] = second compound 0.0316 µM, first compound 0.316 µM
[4] = second compound 0.0316 µM, first compound 1 µM
[5] = second compound 0.0316 µM, first compound 3.16 µM
[6] = second compound 0.0316 µM, first compound 10 µM
[7] = second compound 0.1 µM, first compound 0.0316 µM
[8] = second compound 0.1 µM, first compound 0.1 µM
[9] = second compound 0.1 µM, first compound 0.316 µM
[10] = second compound 0.1 µM, first compound 1 µM
[11] = second compound 0.1 µM, first compound 3.16 µM
[12] = second compound 0.1 µM, first compound 10 µM
[13] = second compound 0.316 µM, first compound 0.0316 µM
[14] = second compound 0.316 µM, first compound 0.1 µM
[15] = second compound 0.316 µM, first compound 0.316 µM
[16] = second compound 0.316 µM, first compound 1 µM
[17] = second compound 0.316 µM, first compound 3.16 µM
[18] = second compound 0.316 µM, first compound 10 µM
[19] = second compound 1 µM, first compound 0.0316 µM
[20] = second compound 1 µM, first compound 0.1 µM
[21] = second compound 1 µM, first compound 0.316 µM
[22] = second compound 1 µM, first compound 1 µM
[23] = second compound 1 µM, first compound 3.16 µM
[24] = second compound 1 µM, first compound 10 µM
[25] = second compound 3.16 µM, first compound 0.0316 µM
[26] = second compound 3.16 µM, first compound 0.1 µM
[27] = second compound 3.16 µM, first compound 0.316 µM
[28] = second compound 3.16 µM, first compound 1 µM
[29] = second compound 3.16 µM, first compound 3.16 µM
[30] = second compound 3.16 µM, first compound 10 µM
[31] = second compound 10 µM, first compound 0.0316 µM
[32] = second compound 10 µM, first compound 0.1 µM
[33] = second compound 10 µM, first compound 0.316 µM
[34] = second compound 10 µM, first compound 1 µM
[35] = second compound 10 µM, first compound 3.16 µM
[36] = second compound 10 µM, first compound 10 µM
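Also: spheroids exposed to compounds for one week before readout.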
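For viability, T/C in this document: percent of DMSO vehicle wells luminescence so 100% = untreated viability.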

## C#Cc1c(F)ccc2cc(O)cc(-c3ncc4c(N5CC6CCC(C5)N6)nc(OCC56CCCN5CC(F)C6)nc4c3F)c12 (stereo not drawn) + Nc1ccc(C#CCN(C(=O)Cc2ncc(C(F)(F)F)cc2C(F)(F)F)c2ccc(F)cc2)nn1
Second compound 0.0316 µM
  IC50: 0.733 µM
Second compound 0.1 µM
  IC50: 0.727 µM
Second compound 0.316 µM
  IC50: 0.813 µM
Second compound 1 µM
  IC50: 0.75 µM
Second compound 3.16 µM
  IC50: 0.646 µM
Second compound 10 µM
  IC50: 0.619 µM
[1]
  viability, T/C: 95.4%
[2]
  viability, T/C: 103%
[3]
  viability, T/C: 62.8%
[4]
  viability, T/C: 48.7%
[5]
  viability, T/C: 26.8%
[6]
  viability, T/C: 26%
[7]
  viability, T/C: 101%
[8]
  viability, T/C: 71.5%
[9]
  viability, T/C: 67.6%
[10]
  viability, T/C: 43.4%
[11]
  viability, T/C: 32.1%
[12]
  viability, T/C: 21.7%
[13]
  viability, T/C: 88.2%
[14]
  viability, T/C: 78.4%
[15]
  viability, T/C: 66.2%
[16]
  viability, T/C: 44.3%
[17]
  viability, T/C: 37.1%
[18]
  viability, T/C: 27.9%
[19]
  viability, T/C: 102%
[20]
  viability, T/C: 89.4%
[21]
  viability, T/C: 67.4%
[22]
  viability, T/C: 44.3%
[23]
  viability, T/C: 30.6%
[24]
  viability, T/C: 26%
[25]
  viability, T/C: 93.1%
[26]
  viability, T/C: 93%
[27]
  viability, T/C: 57%
[28]
  viability, T/C: 48.2%
[29]
  viability, T/C: 26.6%
[30]
  viability, T/C: 27.9%
[31]
  viability, T/C: 89.6%
[32]
  viability, T/C: 92.2%
[33]
  viability, T/C: 62.3%
[34]
  viability, T/C: 41.7%
[35]
  viability, T/C: 35.3%
[36]
  viability, T/C: 27.7%

## CCc1cc2c(N3CCc4c(cc(Cn5ccnc5)cc4-c4cn(C)nc4C(F)(F)F)C3=O)ccnc2c(OC)n1 + Nc1ccc(C#CCN(C(=O)Cc2ncc(C(F)(F)F)cc2C(F)(F)F)c2ccc(F)cc2)nn1
Second compound 0.0316 µM
  IC50: > 10 µM
Second compound 0.1 µM
  IC50: > 10 µM
Second compound 0.316 µM
  IC50: > 10 µM
Second compound 1 µM
  IC50: > 10 µM
Second compound 3.16 µM
  IC50: > 10 µM
Second compound 10 µM
  IC50: > 10 µM
[1]
  viability, T/C: 82.5%
[2]
  viability, T/C: 102%
[3]
  viability, T/C: 103%
[4]
  viability, T/C: 119%
[5]
  viability, T/C: 89.2%
[6]
  viability, T/C: 126%
[7]
  viability, T/C: 79.7%
[8]
  viability, T/C: 103%
[9]
  viability, T/C: 112%
[10]
  viability, T/C: 109%
[11]
  viability, T/C: 95.6%
[12]
  viability, T/C: 120%
[13]
  viability, T/C: 85.7%
[14]
  viability, T/C: 85.2%
[15]
  viability, T/C: 79.5%
[16]
  viability, T/C: 128%
[17]
  viability, T/C: 98.9%
[18]
  viability, T/C: 98.3%
[19]
  viability, T/C: 82.8%
[20]
  viability, T/C: 77.3%
[21]
  viability, T/C: 107%
[22]
  viability, T/C: 101%
[23]
  viability, T/C: 113%
[24]
  viability, T/C: 107%
[25]
  viability, T/C: 102%
[26]
  viability, T/C: 90.7%
[27]
  viability, T/C: 92%
[28]
  viability, T/C: 92.7%
[29]
  viability, T/C: 114%
[30]
  viability, T/C: 115%
[31]
  viability, T/C: 92.8%
[32]
  viability, T/C: 115%
[33]
  viability, T/C: 93.7%
[34]
  viability, T/C: 102%
[35]
  viability, T/C: 110%
[36]
  viability, T/C: 106%

## COc1cc2cc(C(=O)CCC(=O)O)sc2cc1OC + Nc1ccc(C#CCN(C(=O)Cc2ncc(C(F)(F)F)cc2C(F)(F)F)c2ccc(F)cc2)nn1
Second compound 0.0316 µM
  IC50: > 10 µM
Second compound 0.1 µM
  IC50: > 10 µM
Second compound 0.316 µM
  IC50: > 10 µM
Second compound 1 µM
  IC50: > 10 µM
Second compound 3.16 µM
  IC50: > 10 µM
Second compound 10 µM
  IC50: > 10 µM
[1]
  viability, T/C: 84%
[2]
  viability, T/C: 97.2%
[3]
  viability, T/C: 94.5%
[4]
  viability, T/C: 115%
[5]
  viability, T/C: 81.2%
[6]
  viability, T/C: 89.1%
[7]
  viability, T/C: 87.3%
[8]
  viability, T/C: 89.9%
[9]
  viability, T/C: 87.5%
[10]
  viability, T/C: 95.3%
[11]
  viability, T/C: 84%
[12]
  viability, T/C: 103%
[13]
  viability, T/C: 112%
[14]
  viability, T/C: 104%
[15]
  viability, T/C: 86.4%
[16]
  viability, T/C: 90.8%
[17]
  viability, T/C: 86.2%
[18]
  viability, T/C: 109%
[19]
  viability, T/C: 99.6%
[20]
  viability, T/C: 87.1%
[21]
  viability, T/C: 86.9%
[22]
  viability, T/C: 84.5%
[23]
  viability, T/C: 94.2%
[24]
  viability, T/C: 136%
[25]
  viability, T/C: 108%
[26]
  viability, T/C: 98.6%
[27]
  viability, T/C: 95%
[28]
  viability, T/C: 94.9%
[29]
  viability, T/C: 92.2%
[30]
  viability, T/C: 111%
[31]
  viability, T/C: 98%
[32]
  viability, T/C: 91.4%
[33]
  viability, T/C: 93.5%
[34]
  viability, T/C: 89.9%
[35]
  viability, T/C: 100%
[36]
  viability, T/C: 104%

## O=C(Nc1ccc(O)c(NS(=O)(=O)c2ccc(F)cc2)c1)c1ccc(-c2ccccc2)cc1 + Nc1ccc(C#CCN(C(=O)Cc2ncc(C(F)(F)F)cc2C(F)(F)F)c2ccc(F)cc2)nn1
Second compound 0.0316 µM
  IC50: > 10 µM
Second compound 0.1 µM
  IC50: > 10 µM
Second compound 0.316 µM
  IC50: > 10 µM
Second compound 1 µM
  IC50: > 10 µM
Second compound 3.16 µM
  IC50: > 10 µM
Second compound 10 µM
  IC50: > 10 µM
[1]
  viability, T/C: 98.8%
[2]
  viability, T/C: 84.9%
[3]
  viability, T/C: 81.6%
[4]
  viability, T/C: 86.9%
[5]
  viability, T/C: 83.7%
[6]
  viability, T/C: 113%
[7]
  viability, T/C: 105%
[8]
  viability, T/C: 94.3%
[9]
  viability, T/C: 97.1%
[10]
  viability, T/C: 90.5%
[11]
  viability, T/C: 99.8%
[12]
  viability, T/C: 123%
[13]
  viability, T/C: 88.7%
[14]
  viability, T/C: 90%
[15]
  viability, T/C: 94.2%
[16]
  viability, T/C: 89.9%
[17]
  viability, T/C: 97.3%
[18]
  viability, T/C: 116%
[19]
  viability, T/C: 107%
[20]
  viability, T/C: 84.5%
[21]
  viability, T/C: 92.6%
[22]
  viability, T/C: 87.9%
[23]
  viability, T/C: 88.6%
[24]
  viability, T/C: 117%
[25]
  viability, T/C: 107%
[26]
  viability, T/C: 99%
[27]
  viability, T/C: 99.6%
[28]
  viability, T/C: 78.7%
[29]
  viability, T/C: 103%
[30]
  viability, T/C: 109%
[31]
  viability, T/C: 105%
[32]
  viability, T/C: 85.2%
[33]
  viability, T/C: 80.8%
[34]
  viability, T/C: 93.8%
[35]
  viability, T/C: 101%
[36]
  viability, T/C: 102%
